Assay results reported in patent US11040949B2, “Compounds affecting pigment production and methods for treatment of bacterial diseases” (Versitech Limited, priority 2017, dated 2021).
≈ marks a conversion by molar mass, not a printed value.

What was measured:
[1] = Solubility in simulated gastric and intestinal fluids; type: physicochemical
Description: The following table (Table 4) illustrates the solubility of two different compounds, NP16-XL-016 (hereinafter as “IM032”) and NP16-XL-061 (hereinafter as “IM032-C”), in two solutions with different pH values simulating the pH of gastric juice and human intestinal fluid using HCl and phosphate buffer respectively.

[2] = Solubility in commonly used solvents for oral administration; type: physicochemical
S. aureus FPR3757 = experiment: IM032 staphyloxanthin production inhibition; type: cell-based; settings: Staphylococcus aureus
Procedure: (§1) This study aimed to evaluate IM032 for its in vitro efficacy to inhibit the production of staphyloxanthin in different strains of S. aureus.
(§2) The negative control was dimethyl sulfoxide (DMSO) which was used to prepare stock solutions and dilutions; positive control in this test was S. aureus strain FPR3757 treated with IM032.
(§3) The test item was dissolved at 44.9 mg/mL in DMSO at 37° C., aliquoted into several tubes, and stored at −20° C. until use. On the day of testing, a stock solution was serially diluted to testing concentrations with DMSO. All solutions were vortexed and mixed with a pipette to achieve homogeneity immediately before dilution. A correction factor for purity was not applied to the test item preparations.
(§4) Each test item solution (6 μL) was combined with 0.6 mL of S. aureus culture in brain heart infusion broth (CFU per well=1×10^7). 12-wells repeats were performed for each concentration in 96-well 2-mL plates. The plates were then incubated in a shaker at 37° C., 250 rpm for 24 hours. The bacteria were centrifuged at 4,000 rpm for 10 min. Next, the bacteria from 4-wells were combined and were washed twice with PBS. Staphyloxanthin was extracted with 300 μL of methanol in a water bath at 60° C. for 1 hour. After centrifugation, 100 μL of supernatant was transferred to a 96-well cell culture plate and OD450 was measured. The relative pigment production at each tested concentration was calculated as follows: […]
(§5) The IC50 for each test was determined based on the calculated inhibition ratio from above with Prism 6.0 by employing a non-linear regression (four parameters) fitting method with assigned bottom and top at 0.05 and 0.95 respectively. The IC50 presented is the best-fit value.
(§6) S. aureus strains (ATCC29213, HG003, Mu3, SH1000, and COL) were treated with IM032 at final concentrations of 4,000, 1,000, 250, 63, 16, 4 and 1 nM (FIG. 7A). S. aureus strains (JE2, USA300-3, LAC, ST239III and Newman) were treated with IM032 at final concentrations of 250, 63, 16, 4, 1, 0.2 and 0.06 nM (FIG. 7B). […] The determined IC50 values of the tested strains range from 1.2 to 70 nM (Tables 6 and 7).

S. aureus COL = experiment: IM032 staphyloxanthin production inhibition; type: cell-based; settings: Staphylococcus aureus, MRSA
Procedure: as §1, §2, §3, §4, §5, §6

S. aureus ATCC29213 = experiment: IM032 staphyloxanthin production inhibition; type: cell-based; settings: Staphylococcus aureus, ATCC 29213 / MSSA
Procedure: as §1, §2, §3, §4, §5, §6

S. aureus Newman = experiment: IM032 staphyloxanthin production inhibition; type: cell-based; settings: Staphylococcus aureus, MSSA / NEWMAN
Procedure: as §1, §2, §3, §4, §5, §6

S. aureus LAC = experiment: IM032 staphyloxanthin production inhibition; type: cell-based; settings: Staphylococcus aureus
Procedure: as §1, §2, §3, §4, §5, §6

S. aureus USA300-3 = experiment: IM032 staphyloxanthin production inhibition; type: cell-based; settings: Staphylococcus aureus
Procedure: as §1, §2, §3, §4, §5, §6

S. aureus ST239III = experiment: IM032 staphyloxanthin production inhibition; type: cell-based; settings: Staphylococcus aureus, MRSA
Procedure: as §1, §2, §3, §4, §5, §6

S. aureus JE2 = experiment: IM032 staphyloxanthin production inhibition; type: cell-based; settings: Staphylococcus aureus
Procedure: as §1, §2, §3, §4, §5, §6

S. aureus SH1000 = experiment: IM032 staphyloxanthin production inhibition; type: cell-based; settings: Staphylococcus aureus, MSSA
Procedure: as §1, §2, §3, §4, §5, §6

S. aureus Mu3 = experiment: IM032 staphyloxanthin production inhibition; type: cell-based; settings: Staphylococcus aureus
Procedure: as §1, §2, §3, §4, §5, §6

S. aureus HG003 = experiment: IM032 staphyloxanthin production inhibition; type: cell-based; settings: Staphylococcus aureus, MSSA
Procedure: as §1, §2, §3, §4, §5, §6

O=C(/C=C/c1ccccc1Br)Nc1ccc(S(=O)(=O)N2CCCCC2)cc1 [NP16-XL-016, 3-(6-bromophenyl)-N-[4-(1-piperidine-1-sulfonyl)phenyl]-acrylamide]
solubility ([1]; 0.1N HCl + 0.1% Tween 80 (simulated gastric fluid), pH 2, aqueous with cosolvent or surfactant or cyclodextrin, read-out: Solubility in pH 2 (0.1N HCl + 0.1% Tween 80)-simulating human stomach): 2.03 µg/mL | solubility ([1]; pH 7.4, aqueous with cosolvent or surfactant or cyclodextrin, read-out: Solubility in pH 7.4 (KH2PO4 + 0.1% Tween 80)-simulating human intestine): 1.74 µg/mL | solubility higher than that of IM032-Cl ([1]; two biorelevant media, pH 2 and pH 7.4): > 20 × | solubility ([2]; 1:1 Labrasol ALF/PEG300, organic solvent or mixture): 16.1 mg/mL (≈ 35.8 mM) | solubility ([2]; 1:1 Labrasol ALF/PEG400, organic solvent or mixture): > 15 mg/mL | solubility ([2]; Labrasol ALF, oil or lipid): 11.8 mg/mL (≈ 26.3 mM) | solubility ([2]; PEG300, organic solvent or mixture): > 20 mg/mL | solubility ([2]; PEG400, organic solvent or mixture): > 20 mg/mL | IC50 (S. aureus FPR3757; FPR3757, FPR3757, previous study): 17 nM | IC50 (S. aureus FPR3757; MRSA / USA300, Table 8, USA300 (FPR-3757), CA-MRSA): 30.8 ± 5 nM | IC50 (S. aureus FPR3757; MRSA, Table 6, first experiment, FPR3757, MRSA (CA), positive control): 20 nM | IC50 (S. aureus FPR3757; MRSA, Table 7, second experiment, FPR3757, MRSA (CA), positive control): 28 nM | IC50 (S. aureus COL; Table 6, MRSA (HA)): 1.2 nM | IC50 (S. aureus COL; Table 8, HA-MRSA): 0.9 ± 1 nM | IC50 (S. aureus ATCC29213; Table 6): 18 nM | IC50 (S. aureus ATCC29213; Table 8): 30 ± 5 nM | IC50 (S. aureus Newman; Table 7): 21 nM | IC50 (S. aureus Newman; Table 8): 23.7 ± 1 nM | IC50 (S. aureus LAC; MRSA): 27 nM | IC50 (S. aureus LAC; MRSA / USA300): 43.6 ± 5 nM | IC50 (S. aureus USA300-3; MRSA / USA300, Table 7, USA300-3, MRSA (HA)): 27 nM | IC50 (S. aureus USA300-3; MRSA / USA300, Table 8, USA300-3, HA-MRSA): 42.8 ± 6 nM | IC50 (S. aureus ST239III; Table 7, ST239III, MRSA (HA)): 19 nM | IC50 (S. aureus ST239III; Table 8, Clinical isolate ST239III, HA-MRSA): 16.3 ± 8 nM | IC50 (S. aureus JE2; / USA300): 37.7 ± 4 nM | IC50 (S. aureus JE2; MRSA): 26 nM | IC50 (S. aureus SH1000; Table 6): 70 nM | IC50 (S. aureus SH1000; Table 8): 70.5 ± 6 nM | IC50 (S. aureus Mu3; MU3): 1.8 nM | IC50 (S. aureus Mu3; VISA): 2.6 ± 1 nM | IC50 (S. aureus HG003; Table 6): 46 nM | IC50 (S. aureus HG003; Table 8): 54.4 ± 4 nM
